Results from patent publication US8557532B2, “Diagnosis and treatment of drug-resistant Ewing'S sarcoma” (The University of Utah Research Foundation, priority 2010, dated 2013).

How the values were obtained:
[1] = system: Ewing's sarcoma cells with decreased levels of GSTM4; experiment: MTT survival assay, wild-type (luc-RNAi) versus reduced GSTM4 (GSTM4-4-RNAi) Ewing's sarcoma cells; assay type: cell-based, human
Description: Chemotherapeutic sensitivity assays. The sensitivity of Ewing's sarcoma cells to chemotherapeutic agents was determined via the following experimental procedures. The indicated Ewing's sarcoma cells were seeded at a density of 2×10^4 cells/well in 24-well plates on day-0. On day 1, cells were incubated with varying concentrations of the indicated drug or drugs for 3 days. Subsequently, MTT cell proliferation assays were performed according to the manufacturer's instructions (Cayman Chemical Company, Ann Arbor, Mich.).
To test whether GSTM4 contributed to the chemotherapeutic resistance profile of Ewing's sarcoma, wild-type (luc-RNAi) and reduced GSTM4 (GSTM4-4-RNAi) cells were treated with increasing dosages of chemotherapeutic drugs and tested using MTT survival assays. The chemotherapeutic agents that were tested included etoposide, doxorubicin, and melphalan.
It was further determined that GSTM4 can alter the sensitivity of Ewing's sarcoma cells for fenretinide. […] It was further determined that decreased GSTM4 levels can change intracellular redox potential.
JS-K (provided by Dr. Paul Shami at the University of Utah) is a GST-activated prodrug with potent anti-neoplastic activity. A673, Ewing's sarcoma, cells with wild type (Luc-RNAi) or decreased GSTM4 levels (GSTM4-RNAi infected cells) were seeded in 24-well plates at a density of 2×10^4 cells/well. GSTM4 decreased cells or negative controls were treated with increasing concentrations of JS-K (0, 0.3125, 0.625, 1.25, 2.5, 5, or 10 μM) for 72 hours, followed by an MTT cell viability analysis.

[2] = system: A673 cells; experiment: MTT cell proliferation assay in A673 Ewing's sarcoma cells; assay type: cell-based; settings: Homo sapiens, 72 h, 3 days, read-out: IC50, inhibition of A673 cell proliferation
Description: The A673 cells were seeded at a density of 2×10^4 cells/well in 24-well plate on day 0.

| Compound | Sensitivity of cells with decreased GSTM4 levels to the drug compared to control cells [1] | IC50 [2] [µM] |
| --- | --- | --- |
| CC1=C(/C=C/C(C)=C/C=C/C(C)=C/C(=O)Nc2ccc(O)cc2)C(C)(C)CCC1 [fenretinide] | more sensitive | – |
| COc1cccc2c1C(=O)c1c(O)c3c(c(O)c1C2=O)C[C@@](O)(C(=O)CO)C[C@@H]3O[C@H]1C[C@H](N)[C@H](O)[C@H](C)O1 [doxorubicin] | not sensitive | – |
| COc1cc([C@@H]2c3cc4c(cc3[C@@H](O[C@@H]3O[C@@H]5CO[C@@H](C)O[C@H]5[C@H](O)[C@H]3O)[C@H]3COC(=O)[C@H]23)OCO4)cc(OC)c1O [etoposide] | increase in sensitivity | – |
| CCOC(=O)N1CCN(/[N+]([O-])=N/Oc2ccc([N+](=O)[O-])cc2[N+](=O)[O-])CC1 [JS-K, O^2-(2,4-Dinitrophenyl)1-[(4-Ethoxycarbonyl)piperazin-1-yl]diazen-1-ium-1,2-diolate] | less sensitive | – |
| O=[N+]([O-])c1ccc(SCCCCCCO)c2nonc12 [NBDHEX, 6-(7-nitro-2,1,3-benzoxadiazol-4-ylthio) hexanol] | – | 0.5 |
